{"source": "patent US9301956B2", "about": "“Application of cinchona alkaloid derivatives as cytotoxic compounds” (ADAM MICKIEWICZ UNIVERSITY, priority 2014, dated 2016)", "format_in_all_cases": "cell-based", "key": {"MCF-7 (breast cancer)": {"tested_on": "MCF-7 (breast cancer)", "test": "Sulphorhodamine B cytotoxicity test, MCF-7 line", "conditions": "for IC50: Homo sapiens, MCF7, 72 h incubation, SRB", "procedure": "(§1) Cytotoxic activity tests were performed using the following cancer cell lines: MCF-7 (breast cancer), HeLa (cervical cancer) A549 (pulmonary cancer) and KB (nasopharynx cancer) obtained from ECACC (European Collection of Cell Cultures). Cytotoxicity tests were carried out using a standard procedure with sulphorhodamine B. They involved incubation of the cancer cell lines in the logarithmic growth phase for 72 hours with the compound tested and, subsequently, spectrophotometric determination of the degree of cell growth inhibition using adsorption of a dye (sulphorhodamine B) which binds cellular proteins. The determination was carried out according to a procedure reported in: Vichai, V., Kirtikara, K. Nature Protocols, 2006, 1, 1112. […] Solutions of the test compounds were prepared in DMSO in the following concentration range: 0.05; 0.1; 0.5; 1; 5; 10; 50; 100 μM. The cells of the lines tested were treated with the solutions of the test compounds in a laminar-flow chamber which ensured sterile working conditions according to the following procedure: the first three wells were used as a control: they contained 20 μL of DMSO only; successive solutions of the test compound were added to subsequent wells (20 μL), starting with the lowest concentration (three wells for each concentration level). Subsequently, the plates were placed in an incubator for 72 hours. After the end of incubation, the adhered cells were fixed by adding 500 μL of cold (4° C.) 50% trichloroacetic acid (TCA) and incubated at 4° C. for 1 hour. Subsequently, each well was rinsed with sterile water and dried. The operation was repeated five times. The fixed cells were stained for 30 minutes by adding 500 μL of 0.4% of a dye solution (sulphorhodamine B) dissolved in 1% acetic acid. […] Subsequently, the plates were dried in air for approx. 5 minutes. Any unbound dye was dissolved by adding 1500 μL of […] Tris-base buffer (trishydroxymethylaminomethane) to each well and shaken using an orbital shaker for 5 minutes. […] Depending on the type of the cell line, the following growth media were used: • the MCF-7 line was grown in Dulbecco's Modified Eagle's Medium (DME) from Sigma (cat. no. […] R8758)."}, "HeLa (cervical cancer)": {"tested_on": "HeLa (cervical cancer)", "test": "Sulphorhodamine B cytotoxicity test, HeLa line", "conditions": "for IC50: Homo sapiens, HeLa", "procedure": "as §1"}, "KB (nasopharynx cancer)": {"tested_on": "KB (nasopharynx cancer)", "test": "Sulphorhodamine B cytotoxicity test, KB line", "conditions": "for IC50: average of three determinations, read-out: Cytotoxic activity, IC50, KB (nasopharynx cancer)", "procedure": "as §1"}, "A549 (lung cancer)": {"tested_on": "A549 (lung cancer)", "test": "Sulphorhodamine B cytotoxicity test, A549 line", "conditions": "for IC50: Homo sapiens", "procedure": "as §1"}, "[1]": {"tested_on": "cancer cell lines of breast cancer, cervical cancer, lung cancer and nasopharynx cancer", "test": "Sulphorhodamine B cytotoxicity test, cancer cell lines overall (line not specified)", "procedure": "Cytotoxic activity tests were performed using the following cancer cell lines: MCF-7 (breast cancer), HeLa (cervical cancer) A549 (pulmonary cancer) and KB (nasopharynx cancer) obtained from ECACC (European Collection of Cell Cultures).\nCytotoxicity tests were carried out using a standard procedure with sulphorhodamine B. They involved incubation of the cancer cell lines in the logarithmic growth phase for 72 hours with the compound tested and, subsequently, spectrophotometric determination of the degree of cell growth inhibition using adsorption of a dye (sulphorhodamine B) which binds cellular proteins. The determination was carried out according to a procedure reported in: Vichai, V., Kirtikara, K. Nature Protocols, 2006, 1, 1112.\nCancerous cells of the cell line tested in the logarithmic growth phase were seeded onto 24-well plates in a quantity of 20,000 cells/2 mL of the growth medium per well and, subsequently, incubated in an incubator at 37° C., in the 5% CO2 atmosphere for 24 hours. […]\nAfter the end of incubation, the adhered cells were fixed by adding 500 μL of cold (4° C.) 50% trichloroacetic acid (TCA) and incubated at 4° C. for 1 hour. […] Subsequently, 200 μL of solution from each well was transferred to each of two wells on a new 96-well plate and absorption of the solutions was determined spectrophotometrically at a wavelength of 490-530 nm using a plate reader. […]"}, "[2]": {"conditions": "average of three determinations, read-out: Cytotoxic activity, IC50, MCF-7 line (breast cancer)"}, "[3]": {"conditions": "72 h incubation, SRB, average of three determinations, read-out: Cytotoxic activity, IC50, HeLa (cervical cancer)"}, "[4]": {"conditions": "A549, 72 h incubation, SRB, average of three determinations, read-out: Cytotoxic activity, IC50, A549 (lung cancer)"}}, "note": "Several values for one entry are separate records, joined by “and”; a condition that tells them apart may be missing. Equal values may be shown once. Read-outs that look alike come from different tables or passages of the source.", "data": [{"smiles": "O=c1[nH]cc(F)c(=O)[nH]1", "note": "[5-fluorouracil]", "values": [{"measurement": "IC50", "setting": "MCF-7 (breast cancer); [2]", "value": "2.37 µg/mL and 18.2 µM"}, {"measurement": "IC50", "setting": "HeLa (cervical cancer); [3]", "value": "2.73 µg/mL and 21 µM"}, {"measurement": "IC50", "setting": "KB (nasopharynx cancer); 72 h incubation, SRB", "value": "2.86 µg/mL and 22 µM"}, {"measurement": "IC50", "setting": "A549 (lung cancer); [4]", "value": "2.78 µg/mL and 21.4 µM"}]}, {"smiles": "C#CCO[C@@H](c1ccnc2ccccc12)[C@H]1C[C@@H]2CCN1C[C@@H]2C=C", "note": "[PCN, 9-O-propargylcinchonine]", "values": [{"measurement": "times as cytotoxic as 5FU", "setting": "MCF-7 (breast cancer); MCF-7 line, relative to 5FU", "value": "more than two times"}, {"measurement": "times as active as 5 FdU", "setting": "MCF-7 (breast cancer); MCF-7 line, relative to 5 FdU", "value": 1.3, "unit": "times"}, {"measurement": "times as cytotoxic as 5FU", "setting": "HeLa (cervical cancer); HeLa (cervical cancer), relative to 5FU", "value": "two times"}, {"measurement": "times as cytotoxic as 5 FdU", "setting": "HeLa (cervical cancer); HeLa (cervical cancer), relative to 5 FdU", "value": 1.2, "unit": "times"}, {"measurement": "in vitro cytotoxicity against cancer cell lines", "setting": "[1]", "value": "within the range of high activity"}, {"measurement": "Cytotoxic activity class, KB (nasopharynx cancer)", "setting": "KB (nasopharynx cancer); 72 h incubation, SRB", "value": "(A) (IC50<4 μg/mL are generally assumed as active (abbreviated as A))"}, {"measurement": "times as high activity compared to 5FU", "setting": "KB (nasopharynx cancer); KB (nasopharynx cancer), relative to 5FU", "value": 2.3, "unit": "times"}, {"measurement": "times as high activity compared to 5 FdU", "setting": "KB (nasopharynx cancer); KB (nasopharynx cancer), relative to 5 FdU", "value": 1.4, "unit": "times"}, {"measurement": "times as cytotoxic as 5FU", "setting": "A549 (lung cancer); A549 (pulmonary cancer), relative to 5FU", "value": "more than 1.8 times"}, {"measurement": "cytotoxicity compared with 5 FdU", "setting": "A549 (lung cancer); A549 (pulmonary cancer), relative to 5 FdU", "value": "slightly more cytotoxic"}]}, {"smiles": "C=C[C@H]1C[N@@]2CC[C@H]1C[C@@H]2[C@@H](O)c1ccnc2ccccc12", "note": "[cinchonine]", "values": [{"measurement": "IC50", "setting": "MCF-7 (breast cancer); read-out: Cytotoxic activity class, MCF-7 line (breast cancer)", "value": "4 to 30", "unit": "µg/mL"}, {"measurement": "IC50", "setting": "HeLa (cervical cancer); 72 h, read-out: Cytotoxic activity class, HeLa (cervical cancer)", "value": "4 to 30", "unit": "µg/mL"}, {"measurement": "IC50", "setting": "A549 (lung cancer); A549, 72 h, read-out: Cytotoxic activity class, A549 (lung cancer)", "value": "4 to 30", "unit": "µg/mL"}]}, {"smiles": "O=c1[nH]c(=O)n([C@H]2C[C@H](O)[C@@H](CO)O2)cc1F", "note": "[5-fluoro-2′-deoxyuridine]", "values": [{"measurement": "IC50", "setting": "MCF-7 (breast cancer); [2]", "value": "2.81 µg/mL and 11.4 µM"}, {"measurement": "IC50", "setting": "HeLa (cervical cancer); [3]", "value": "3.2 µg/mL and 13 µM"}, {"measurement": "IC50", "setting": "KB (nasopharynx cancer); 72 h incubation, SRB", "value": "3.37 µg/mL and 13.7 µM"}, {"measurement": "IC50", "setting": "A549 (lung cancer); [4]", "value": "3.3 µg/mL and 13.4 µM"}]}]}
